Reference: ChEMBL document CHEMBL1201862, “PubChem BioAssay data set” (2004)
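All cell lines were grown in 96-well plates and treated with compound for 48 hours. The concentration for 50% growth inhibition is given as GI50.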 The source made the active and inactive calls. Rule as the data show it: active = GI50 up to about 1.1 µM and inactive = higher.

Tests used:
Experiment in all cases: NCI tumour cell line growth inhibition, 48 h
NCI-H460 = system: NCI-H460
NCI-H23 = system: NCI-H23
SK-MEL-5 = system: SK-MEL-5
IGROV-1 = system: IGROV-1
A498 = system: A498
NCI-H522 = system: NCI-H522
K562 = system: K562
LOX IMVI = system: LOX IMVI
MDA-MB-231 = system: MDA-MB-231
TK-10 = system: TK-10
ACHN = system: ACHN
SK-MEL-28 = system: SK-MEL-28
HL-60 = system: HL-60
SW-620 = system: SW-620
HCT-116 = system: HCT-116
RPMI-8226 = system: RPMI-8226
CAKI-1 = system: CAKI-1
SN12C = system: SN12C
PC-3 = system: PC-3
OVCAR-4 = system: OVCAR-4

Measured: GI50

CCCCCCCCCCCCc1ccsc1-c1ccc(-c2ccc(-c3sccc3CCCCCCCCCCCC)s2)s1
inactive: NCI-H460 > 100 µM | NCI-H23 > 100 µM | SK-MEL-5 > 100 µM | IGROV-1 > 100 µM | A498 > 100 µM | NCI-H522 > 100 µM | K562 > 100 µM | LOX IMVI > 100 µM | MDA-MB-231 > 100 µM | TK-10 > 100 µM | ACHN > 100 µM | SK-MEL-28 > 100 µM | HL-60 > 100 µM | SW-620 > 100 µM | HCT-116 > 100 µM | RPMI-8226 > 100 µM | CAKI-1 > 100 µM | SN12C > 100 µM | PC-3 > 100 µM

CC1=CC2=C(C(N)=O)C(=O)OC2(C)C(c2ccccc2)C1 (stereo not given)
inactive: NCI-H460 > 100 µM | IGROV-1 > 100 µM | A498 > 100 µM | NCI-H522 > 100 µM | K562 > 100 µM | LOX IMVI > 100 µM | MDA-MB-231 > 100 µM | TK-10 > 100 µM | ACHN > 100 µM | SK-MEL-28 > 100 µM | HL-60 > 100 µM | SW-620 > 100 µM | HCT-116 > 100 µM | RPMI-8226 > 100 µM | OVCAR-4 > 100 µM | SN12C > 100 µM | PC-3 > 100 µM

C=CCc1ccccc1C1CC2(C(=O)OC)OC1C(C(=O)OC)=C2C(=O)OC (stereo not given)
inactive: NCI-H460 > 10 µM | NCI-H23 > 10 µM | SK-MEL-5 > 10 µM | IGROV-1 > 10 µM | A498 > 10 µM | K562 > 10 µM | LOX IMVI > 10 µM | MDA-MB-231 > 10 µM | TK-10 > 10 µM | ACHN > 10 µM | SK-MEL-28 > 10 µM | HL-60 > 10 µM | SW-620 > 10 µM | HCT-116 > 10 µM | RPMI-8226 > 10 µM | OVCAR-4 > 10 µM | CAKI-1 > 10 µM | SN12C > 10 µM | PC-3 > 10 µM

Cc1cc(C)nc(NS(=O)(=O)c2ccc(NC(=O)c3cc([N+](=O)[O-])cc([N+](=O)[O-])c3)cc2)n1
inactive: NCI-H460 86.7 µM | NCI-H23 > 100 µM | SK-MEL-5 95.3 µM | IGROV-1 > 100 µM | A498 > 100 µM | K562 60.7 µM | LOX IMVI 26.8 µM | MDA-MB-231 > 100 µM | TK-10 > 100 µM | SK-MEL-28 99.8 µM | HL-60 30.1 µM | SW-620 > 100 µM | HCT-116 > 100 µM | RPMI-8226 57.5 µM | OVCAR-4 22.9 µM | CAKI-1 > 100 µM | SN12C 70.6 µM | PC-3 58.7 µM

COc1ccc(S(=O)(=O)Nc2ccc(-c3csc(N4C(=O)/C(=C/c5ccccc5)N=C4c4ccccc4)n3)cc2)cc1Cl
inactive: NCI-H460 31.3 µM | NCI-H23 23.2 µM | SK-MEL-5 28.4 µM | IGROV-1 38.6 µM | A498 11.3 µM | NCI-H522 39 µM | K562 34.3 µM | LOX IMVI 32.5 µM | MDA-MB-231 16.1 µM | TK-10 47.4 µM | ACHN 34.8 µM | SK-MEL-28 57.4 µM | HL-60 24.6 µM | SW-620 43.7 µM | HCT-116 35.3 µM | OVCAR-4 27.2 µM | CAKI-1 62.8 µM | SN12C 65.6 µM | PC-3 25.4 µM

CNC(=O)c1nn[nH]c1O
inactive: NCI-H460 > 10 µM | NCI-H23 > 100 µM | SK-MEL-5 > 100 µM | IGROV-1 > 100 µM | A498 > 100 µM | NCI-H522 > 100 µM | K562 > 100 µM | LOX IMVI > 100 µM | MDA-MB-231 > 100 µM | ACHN > 100 µM | SK-MEL-28 > 100 µM | HL-60 > 100 µM | SW-620 > 100 µM | HCT-116 > 100 µM | RPMI-8226 > 100 µM | CAKI-1 > 100 µM | SN12C > 100 µM | PC-3 > 100 µM
